Test results: US5981777A, “Recovery of taxanes from plant material” (The Regents of the University of California, priority 1997, dated 1999)

Key:
[1] = system: polyclonal anti-taxane (TA11) antibody; experiment: indirect competitive immunoassay, cross-reactivity with TA11; details: > x = highest concentration tested (270 or 300 ng/ml), read-out: IC50 TA11 (concentration of analyte required to inhibit antibody binding to solid phase antigen by 50%)
Description: (§1) A preferred antibody is TA14 available from Hawaii Biotechnology Group is particularly useful for this purpose. The cross-reactivity of polyclonal anti-taxane (TA11) and taxol- (TA12), baccatin III- (TA13), or "generic taxane"-specific (TA14) monoclonal antibodies as determined by indirect competitive immunoassays is set forth in Table 1. All of these antibodies are available from Hawaii Biotechnology group.
(§2) ^a Crossreactivity is expressed as the concentration of analyte
(§3) required to inhibit antibody binding to solid phase antigen by 50%
(§4) (IC50) in the indicated competitive immunoassay. Values expressed as
(§5) > x represent the highest concentration tested (either 270 or 300 ng/ml).

[2] = system: taxol-specific (TA12) monoclonal antibody; experiment: indirect competitive immunoassay, cross-reactivity with TA12; set-up: species or system mouse; details: > x = highest concentration tested (270 or 300 ng/ml), read-out: IC50 TA12 (concentration of analyte required to inhibit antibody binding to solid phase antigen by 50%)
Description: as §1, §2, §3, §4, §5

[3] = system: baccatin III-specific (TA13) monoclonal antibody; experiment: indirect competitive immunoassay, cross-reactivity with TA13; set-up: species or system mouse; details: > x = highest concentration tested (270 or 300 ng/ml), read-out: IC50 TA13 (concentration of analyte required to inhibit antibody binding to solid phase antigen by 50%)
Description: as §1, §2, §3, §4, §5

[4] = system: "generic taxane"-specific (TA14) monoclonal antibody; experiment: indirect competitive immunoassay, cross-reactivity with TA14; set-up: species or system mouse; details: > x = highest concentration tested (270 or 300 ng/ml), read-out: IC50 TA14 (concentration of analyte required to inhibit antibody binding to solid phase antigen by 50%)
Description: as §1, §2, §3, §4, §5

[5] = system: "generic taxane"-specific (TA14) monoclonal antibody; details: in words; Kingston et al. J. Nat. Prod. 53:1-12 (1990); cited from earlier work
[6] = system: taxol-specific (TA12) monoclonal antibody; details: in words; cited from earlier work
[7] = system: baccatin III-specific (TA13) monoclonal antibody; details: in words; cited from earlier work

Row | Structure (SMILES) | IC50 [1] [nM] | IC50 [2] [nM] | cross-reaction with TA14 [5] | other results
1 | CC(=O)O[C@@]12CO[C@@H]1C[C@@H](O)[C@@]1(C)C(=O)[C@H](O)C3=C(C)[C@@H](O)C[C@@](O)([C@@H](OC(=O)c4ccccc4)[C@H]21)C3(C)C [7-epi-10-deacetylbaccatin III] | 34 | > 496 | – | –
2 | CC(=O)O[C@@]12CO[C@@H]1C[C@@H](O)[C@@]1(C)C(=O)[C@H](O)C3=C(C)[C@@H](OC(=O)[C@H](O)[C@@H](NC(=O)c4ccccc4)c4ccccc4)C[C@@](O)([C@@H](OC(=O)c4ccccc4)[C@H]21)C3(C)C [7-epi-10-deacetyltaxol] | 1.2 | 25 | – | IC50 [3]: > 333 nM; IC50 [4]: 15 nM
3 | CC(=O)O[C@H]1C(=O)[C@]2(C)[C@H](O)C[C@H]3OC[C@@]3(OC(C)=O)[C@H]2[C@H](OC(=O)c2ccccc2)[C@]2(O)C[C@H](OC(=O)[C@H](O)[C@@H](NC(=O)c3ccccc3)c3ccccc3)C(C)=C1C2(C)C [7-epi-taxol] | 8 | 80 | – | IC50 [3]: > 316 nM; IC50 [4]: 50 nM
4 | CC(=O)O[C@@]12CO[C@@H]1C[C@H](O[C@@H]1OC[C@@H](O)[C@H](O)[C@H]1O)[C@@]1(C)C(=O)[C@H](O)C3=C(C)[C@@H](OC(=O)[C@H](O)[C@@H](NC(=O)c4ccccc4)c4ccccc4)C[C@@](O)([C@@H](OC(=O)c4ccccc4)[C@H]21)C3(C)C [7-xylosyl-10-deacetyltaxol] | 1.8 | – | – | –
5 | CC(=O)O[C@@]12CO[C@@H]1C[C@H](O)[C@@]1(C)C(=O)[C@H](O)C3=C(C)[C@@H](OC(=O)[C@H](O)[C@@H](NC(=O)c4ccccc4)c4ccccc4)C[C@@](O)([C@@H](OC(=O)c4ccccc4)[C@H]21)C3(C)C [10-deacelyltaxol] | 0.7 | – | – | –
6 | CC(=O)O[C@@]12CO[C@@H]1C[C@H](O)[C@@]1(C)C(=O)[C@H](O)C3=C(C)[C@@H](O)C[C@@](O)([C@@H](OC(=O)c4ccccc4)[C@H]21)C3(C)C [10-deacetylbaccatin III] | – | – | cross reacts | –
7 | CC(=O)O[C@H]1C(=O)[C@@]2(C)[C@H]([C@H](OC(=O)c3ccccc3)[C@]3(O)C[C@H](OC(=O)[C@H](O)[C@@H](NC(=O)c4ccccc4)c4ccccc4)C(C)=C1C3(C)C)[C@]1(OC(C)=O)CO[C@@H]1C[C@@H]2O [Taxol ® (paclitaxel), paclitaxel] | 0.5 | – | cross reacts | reactivity with TA12 [6]: specifically reactive
8 | CC(=O)O[C@@]12CO[C@@H]1C[C@H](O)[C@@]1(C)C(=O)[C@H](O)C3=C(C)[C@@H](OC(=O)[C@H](O)[C@@H](NC(=O)OC(C)(C)C)c4ccccc4)C[C@@](O)([C@@H](OC(=O)c4ccccc4)[C@H]21)C3(C)C [Taxotere ® (docetaxel), docetaxel] | – | > 318 | – | IC50 [3]: > 318 nM; IC50 [4]: 10 nM
9 | CC(=O)O[C@H]1C(=O)[C@@]2(C)[C@H]([C@H](OC(=O)c3ccccc3)[C@]3(O)C[C@H](O)C(C)=C1C3(C)C)[C@]1(OC(C)=O)CO[C@@H]1C[C@@H]2O [baccatin III] | – | – | cross reacts | binding to TA13 [7]: binds with equal affinity
10 | CC(=O)O[C@H]1C(=O)[C@]2(C)[C@H](O)C[C@H]3OC[C@@]3(OC(C)=O)[C@H]2[C@H](OC(=O)c2ccccc2)[C@]2(O)C[C@H](O)C(C)=C1C2(C)C [baccatin V] | – | – | – | binding to TA13 [7]: binds with equal affinity
11 | C/C=C(\C)C(=O)N[C@@H](c1ccccc1)[C@@H](O)C(=O)O[C@H]1C[C@@]2(O)[C@@H](OC(=O)c3ccccc3)[C@@H]3[C@]4(OC(C)=O)CO[C@@H]4C[C@H](O)[C@@]3(C)C(=O)[C@H](OC(C)=O)C(=C1C)C2(C)C [cephalomannine] | 1 | – | cross reacts | –
